Measurements from patent US20150011492A1, “ANTI-RESTENOSIS COMPOSITIONS AND METHODS” (WISCONSIN ALUMNI RESEARCH FOUNDATION, priority 2013, published 2015).
Entries after “also recorded” stand apart in the source; their conditions may differ.

Tests used:
[1] = test system: primary human aortic smooth muscle cells (HuAoSMCs); assay: AlamarBlue cell viability assay of HuAoSMC proliferation (automated HTS); type: cell-based
Source text: Alamar Blue was purchased from Invitrogen (Carlsbad, Calif.). Cell Titer Glo was from Promega (Madison, Wis.). Primary human aortic smooth muscle cells (HuAoSMCs) and primary human aortic endothelial cells (HuAoECs) at passage 3 were purchased from Lonza; their respective optimal culture media (SmGM-2 and EGM-2) were from the same commercial source. Cells were used at passage 5 after expansion. Trypsin/EDTA solution was from Clonetics (Walkersville, Md.); and DPBS was from Gibco (Invitrogen, Carlsbad, Calif.). Microtiter tissue 96-well culture plates with transparent flat-bottoms and black-walled sides were from Costar (Corning, N.Y.). Resveratrol and idarubicin were products of Sigma-Aldrich (St. Louis, Mo.). […]
Freshly collected HuAoSMCs (passage 5) were counted ([…]) by Cellometer AutoT4 (Nexelon Bioscience), and dispensed using Microflo Select (BioTek) to a final density of 2700 cells/[…]/well in the SmGM-2 medium in a 96-well plate. […] Cell growth/proliferation was monitored by reading fluorescence from the AlamarBlue® cell viability reagent (Invitrogen). […] After incubation with resveratrol for 72 hours, AlamarBlue reagent was added using Matrix Hydra (Thermo-Fisher) and incubated with cells for another 24 hours, and fluorescence was then determined using a Safir2 plate reader (Tecan, excitation/fluorescence: 530 nm/590 nm, bandwidth: 15 nm). […]

[2] = test system: balloon-injured rat carotid arteries; assay: Rat carotid balloon angioplasty model, perivascular drug delivery in pluronic gel; type: in vivo, Male Sprague-Dawley rats
Method: Balloon injury of the left common carotid artery was performed in Male Sprague-Dawley rats (300-350 g) according to the method described previously (Kundi et al., Cardiovasc Res. 84(2):326-35 (2009). Briefly, after induction of anesthesia with isoflurane, a 2F balloon catheter was inserted through the left external carotid artery into the common carotid and insufflated three times at 2 atm of pressure. The external carotid artery was then ligated, and blood flow was resumed through the common and internal carotid arteries. For perivascular drug delivery, resveratrol (500 μg) or halofuginone (30 μg) or DMSO dissolved in 200 μL of 25% F127 pluronic gel (Sigma-Aldrich) in PBS was evenly applied, immediately after reestablishment of flow, around the injured segment of the carotid artery (5 animals in each group). The pluronic gel is a biodegradable polymer that is soluble in water at 4° C. but becomes a gel when in contact with tissues at 37° C. (Ji et al., Circ. Res. 100:1579-88 (2007)). Rats were euthanized 14 days after injury, and the common carotid arteries were collected and fixed in 4% paraformaldehyde overnight for embedding in paraffin.
For morphometric analysis of intimal hyperplasia, ten evenly spaced sections through each injured carotid artery were stained using routine hematoxylin and eosin (H&E) and images were collected with light microscopy. Intimal and medial areas and circumference were determined by measuring the internal elastic lamina (IEE) and external elastic lamina (EEL) for each section using the ImageJ software (National Institutes of Health). Kundi et al., Cardiovasc. Res. 84:326-35 (2009); Kingston et al., Circulation 108:2819-25 (2003). The difference in intimal hyperplasia between the compound treatment group and the control group was analyzed with the Student t-test (P<0.05).
To mark endothelial cells, immunohistochemistry using an anti-CD31 antibody was performed on rat carotid sections based on our published methods. Suwanabol et al., Am J Physiol Heart Circ Physiol. 302:H2211-19 (2012); Kundi et al., Cardiovasc. Res. 84:326-35 (2009); Si et al., Arterioscler. Thromb. Vasc. Biol. 32:943-54 (2012). Briefly, the carotid sections were incubated with the anti-CD31 antibody (Santa Cruz Biotechnology) overnight at 4° C., followed by rhodamine-conjugated secondary antibody (DAKO) for 60 minutes at room temperature. Antibody controls included species-matched IgG. Images were taken with a fluorescence microscope.
Balloon angioplasty was performed in the left common carotid artery of male Sprague-Dawley rats. Immediately after resuming the blood flow, idarubicin (110 μg) or DMSO control dissolved in 300 μL of 25% F127 pluronic gel was applied around the injured artery. At 14 days after injury, arteries were collected and cross-sections were prepared and H&E stained. Intimal and medial areas, and circumference were determined by measuring the internal elastic lamina (IEE) and external elastic lamina (EEL) for each section using the ImageJ software. The difference in intimal hyperplasia (ratio of intima to media) between the idarubicin treatment group and the control group was analyzed with the Student t-test (P<0.05). Immunostaining of CD31, an endothelial cell marker, was performed on the sections to assess re-endothelialization.
Using the carotid artery sections collected on day 14 following angioplasty, we performed immunostaining for CD31 (FIGS. 10A-C), a commonly used marker for assessment of the endothelium, in a rat carotid injury model at 14 days. Briefly, a goat anti-CD31 primary antibody (R&D Sytems, 1:150) was incubated with the sections for 1 hour followed by an incubation with a biotinylated rabbit-anti-goat secondary antibody for 30 minutes. Immunostaining of CD31 was then visualized by using streptavidin-HRP and DAB.

HuAoSMCs = assay: Dose response proliferation assay, HuAoSMCs (96-well plate); type: cell-based, human
Method: FIGS. 5A-B present comparative dose responses of HuAoSMCs and HuAoECs for idarubicin (A) and resveratol (B).
Cryo-protected frozen HuAoSMCs and HuAoECs (Lonza, passage 3) were thawed and cultured in their respective media that are optimized for cell growth by the manufacturer. HuAoSMCs (“SMCs”) were grown in the SmGM-2 medium containing 5% FBS, and HuAoECs (“ECs”) in the EGM-2 medium containing 2% FBS in a humidified incubator at 37° C. with 5% CO2.

[3] = test system: balloon-injured rat carotid arteries; assay: Rat carotid balloon angioplasty model, perivascular drug delivery in pluronic gel; type: in vivo, Male Sprague-Dawley rats; remark: listed apart in the source
[4] = test system: primary human aortic endothelial cells (HuAoECs); assay: Counter-screen / dose response proliferation assay, HuAoECs
human SMCs = assay: CellTiter-Glo luminescent cell viability assay, SMCs; type: cell-based; settings: 200 nM
Method: Freshly collected HuAoSMCs (passage 5) were counted ([…]) by Cellometer AutoT4 (Nexelon Bioscience), and dispensed using Microflo Select (BioTek) to a final density of 2700 cells/[…]/well in the SmGM-2 medium in a 96-well plate. After a 24 hour incubation to allow cell attachment, […] of DMSO (vehicle) or […] of resveratrol (a known SMC growth inhibitor) stock in DMSO was robotically transferred using Biomek FX (Beckman) from a resveratrol stock plate into cell culture (final […] resveratrol). DMSO and resveratrol were added into alternate columns of wells (8 wells per column). Cell growth/proliferation was monitored by reading fluorescence from the AlamarBlue® cell viability reagent (Invitrogen). See Antczak et al., J. Biomol. […] After incubation with resveratrol for 72 hours, AlamarBlue reagent was added using Matrix Hydra (Thermo-Fisher) and incubated with cells for another 24 hours, and fluorescence was then determined using a Safir2 plate reader (Tecan, excitation/fluorescence: 530 nm/590 nm, bandwidth: 15 nm). The data from 40 wells of vehicle and 40 wells of resveratrol treatments were analyzed for assessment of well-well consistency in the assay. […] It was determined that reading Alamar Blue fluorescence 24 hours after incubation reduced variance compared to reading after shorter incubation (e.g., 4 hours). […]

human ECs = assay: CellTiter-Glo luminescent cell viability assay, ECs; type: cell-based; settings: 200 nM
Source text: For human SMCs, cell densities ranging from about 1,000 cells per well to about 5,000 cells per well were aliquoted into 96-well plates and cultured in the SmGM-2 medium (Lonza CC-3182) with 5% serum.
This robust well-to-well consistency achieved by our experimental system is better reflected by a Z′ value of 0.63. […] See, e.g., Tomasini-Johansson et al., J. Intl. Soc. Matrix Biol. (2012); Zhang et al., J. Biomol. Screening 4:67-73 (1999); Patel et al., PloS One 7:e36594 (2012). In parallel experiments, a CellTiter-Glo® luminescent cell viability assay (Cat. #7570, Promega), which quantifies ATP levels in cell lysates, was evaluated as an additional and more sensitive orthologous assay for cell number. Sachsenmeier et al., PLoS One 17:993-8 (2012). Using the CellTiter-Glo® assay, Rapamycin which is used in drug-eluting stents at 200 nM produced >50% inhibition of both human SMCs and ECs with Z′ values of 0.56 to 0.75 respectively (FIG. 2). In addition, CellTiter-Glo® assays using resveratrol for both SMCs and ECs also produced high Z′ values (>0.7) (data not shown). Curve fitting was performed with the Prism software (GraphPad).

[5] = halofuginone 30 μg in 200 μL pluronic gel, 14 days
[6] = relative to controls not contacted to idarubicin formulation
[7] = Example 5, local perivascular application, day 14 following angioplasty, 5 rats
[8] = idarubicin applied locally around injured artery, day 14
[9] = medium dose 0.5 mg/mL in pluronic gel

For `Oc1ccc(C=Cc2cc(O)cc(O)c2)cc1` [resveratrol], the “SMC growth in cell assays, in words” value [1] was “inhibit SMC growth” and the “inhibition of the intima/media ratio” value ([2]; resveratrol 500 μg in 200 μL pluronic gel, perivascular, 14 days after injury) was 84%.

For `O=C(CC1NCCCC1O)Cn1cnc2cc(Br)c(Cl)cc2c1=O` (stereo not shown) [halofuginone], the “SMC growth in cell assays, in words” value [1] was “inhibit SMC growth”, the “effect on intimal hyperplasia, in words” value [2, 5] was “inhibits intimal hyperplasia” and the “effect on re-endothelialization (CD31 staining), in words” value [2, 5] was “not re-endothelialization; also recorded: not affected”. For the same compound, the “reduction of intimal hyperplasia (intima/media ratio)” value ([2]; halofuginone 30 μg in 200 μL pluronic gel, periadventitial, 14 days after injury) was 74%.

`CC(=O)[C@]1(O)Cc2c(O)c3c(c(O)c2[C@@H](O[C@H]2C[C@H](N)[C@H](O)[C@H](C)O2)C1)C(=O)c1ccccc1C3=O` [idarubicin, (7S,9S)-9-Acetyl-7-[(3-amino-2,3,6-trideoxy-α-L-lyxo-hexapyranosyl)oxy]-7,8,9,10-tetrahydro-6,9,11-trihydroxy-5,12-naphtacenedione] was tested, and the “SMC versus EC proliferation, dose response (in words)” value (HuAoSMCs; approximately 50 nM to 1000 nM) was “impedes SMC proliferation to a significantly greater extent than ECs; also recorded: differentially inhibited SMC proliferation with a lesser effect on ECs”, the “inhibition of smooth muscle cell proliferation” value (HuAoSMCs; [6]) was “up to 80%” and the “increase of lumen size” value [2, 7] was 45%. The “reduction of intimal hyperplasia” value [2, 7] was 80%, the “effect on intimal hyperplasia (intima/media), in words” value [2, 8] was “effectively reduced; also recorded: inhibitory effect; also recorded: inhibits intimal hyperplasia in a dose-dependent manner” and the “effect on re-endothelialization (CD31 staining), in words” value [2, 8] was “not affected; also recorded: absence of idarubicin's effect; also recorded: preserves and promotes re-endothelialization; also recorded: no substantial impairment; also recorded: no significant effect”. The “reduction of intimal hyperplasia” value ([2]; local application, dose not stated at the place (Example 3)) was 70%, the “cytotoxicity in surrounding tissues” value ([3]; highest dose 1 mg/mL in pluronic gel) was “slight cytotoxicity” and the “cytotoxicity in surrounding tissues” value ([3]; lowest dose 0.2 mg/mL in pluronic gel) was “without showing cytotoxicity”. The “inhibition of intimal hyperplasia” value ([3]; lowest dose 0.2 mg/mL in pluronic gel (data not shown)) was over 70%, the “cytotoxicity in surrounding tissues” value [3, 9] was “without showing cytotoxicity” and the “inhibition of intimal hyperplasia” value [3, 9] was over 70%. The “SMC versus EC preference in counter-screen of EC proliferation, in words” value ([4]; counter-screen) was “preferentially inhibits SMCs over ECs” and the “inhibition of endothelial cell proliferation” value [4, 6] was “less than 40%”.

`CO[C@H]1C[C@@H]2CC[C@@H](C)[C@@](O)(O2)C(=O)C(=O)N2CCCC[C@H]2C(=O)O[C@H]([C@H](C)C[C@@H]2CC[C@@H](O)[C@H](OC)C2)CC(=O)[C@H](C)/C=C(\C)[C@@H](O)[C@@H](OC)C(=O)[C@H](C)C[C@H](C)/C=C/C=C/C=C/1C` [Rapamycin] gave an inhibition at 0.2 µM (human SMCs) of over 50% and an inhibition at 0.2 µM (human ECs) of over 50%.
